In paper PMC5839262, “Inhibitors of bacterial protease enzymes for periodontal therapy” (Clinical and Experimental Dental Research, 2015):
Where two headings read alike, the source gives them in different places. Where a SMILES comes first, the peptide text is derived from it.

Legend:
Rgp = Rgp gingipain activity, fluorescent assay with benzoyl‐R‐AMC in Pg cell suspensions; assay type: biochemical, Porphyromonas gingivalis; conditions: for IC50: 0.2 mM benzoyl‐R‐AMC, 15 min, read-out: concentration causing 50% inhibition of Rgp activity; for effect on Rgp activity: concentrations up to 1 × 10^−4 M, results not shown
Protocol: (§1) To obtain culture media for measuring secreted gingipain activity, we removed bacteria by centrifugation followed by filtration through 0.2‐µm filters, and we supplemented the medium with 0.2 mM PMSF to block any serine‐protease activity. To measure cell‐associated activity, we resuspended bacteria to an optical density of 4.0 at 600 nm (4 × 10^9 CFU/mL) in DPBS, and PMSF was added. Portions of the media and bacterial suspensions were frozen in liquid nitrogen and stored at −80°C.
(§2) The gingipain assay was adapted from procedures of Chen et al. (2001) and Suwannakul et al. (2010). To measure activity of Rgp or Kgp, respectively, we incubated various volumes of media or bacterial suspensions 10 min at 37°C in DPBS with 1 mM L‐cysteine to ensure that the gingipain active‐site cysteine was in the reduced, active form, and then we added the substrate benzoyl‐R‐AMC or Boc‐VLK‐AMC to give 0.2 mM substrate in a final volume of 0.1 mL. The incubation was continued 15 min at 37°C in black multiwell plates. Incubations were stopped by adding 50 μL of 1.5 mM TLCK, an irreversible inhibitor of serine and cysteine proteases. Fluorescence was measured with a fluorescence plate reader (SpectraMax Gemini EM, Molecular Devices, Sunnyvale, CA) with excitation at 365 nm and emission at 460 nm to measure hydrolysis of the substrate and release of the fluorescent product.
(§3) To measure effects of inhibitors on Rgp or Kgp activity, we diluted conditioned media fivefold or bacterial suspensions fiftyfold with DPBS, and we selected a diluted sample volume of 20 μL or less that gave a strong fluorescent signal, and we incubated the sample 15 min in DPBS with 0.2 mM substrate and various levels of protease inhibitors.

Kgp = Kgp (Porphyromonas gingivalis, UniProt B2RLK2); assay: Kgp gingipain activity, fluorescent assay with Boc‐VLK‐AMC in Pg cell suspensions; assay type: biochemical
Protocol: as §1, §2, §3

Water solubility = assay type: physicochemical; conditions: stated in discussion
Pg = assay: Bactericidal activity, LIVE/DEAD BacLight viability assay; assay type: cell-based, Porphyromonas gingivalis; conditions: 1 h; for bactericidal activity: both Pg strains, concentrations up to 1 × 10^−4 M
Protocol: Pg bacteria were collected by centrifugation and diluted to 2 × 10^8 CFU/mL in isotonic saline at 25°C. Pg (10^8 CFU/mL) were then incubated with various concentrations of protease inhibitors at 37°C with gentle mixing in 0.1 mL incubation mixtures in black multiwell plates inside AnaeroGen™ Compact pouches (Oxoid Corporation, Nepean, ON, Canada) to lower the oxygen (O2) concentration. After 1 h, the number of live bacteria per milliliter was measured with a LIVE/DEAD BacLight™ Bacterial Viability kit (Invitrogen, Inc., Carlsbad, CA). The assay determines the number of live bacteria based on entry of the fluorescent dyes SYTO 9 and propidium iodide into the bacteria. SYTO 9 enters both live and dead bacteria and binds to DNA, giving a green fluorescence. Propidium iodide enters only dead bacteria and binds to DNA, giving a red fluorescence. A 0.1 mL portion of 2× BacLight dye mixture was added to the bacteria in the wells, and the plate was incubated 15 min at 37°C in an AnaeroGen™ pouch in the dark. Immediately following removal of the plate from the pouch, fluorescence was measured in a fluorescence plate reader with excitation at 485 nm. Green fluorescence of SYTO 9 was measured at 538 nm, and red fluorescence of propidium iodide was measured at 612 nm. Standard curves were prepared with various ratios of live and dead bacteria, and the number of live bacteria was determined from the ratio of green to red fluorescence. Control experiments were performed in which Pg viability was measured by diluting, plating on blood agar plates, and counting colonies after 1 to 2 weeks at 37°C under anaerobic conditions to confirm that the plating and fluorescent assays provided similar results. Toxicity of the protease inhibitors to E. coli was also measured. Assay conditions were the same as for Pg except that incubations were in air.

cultured human cells = tested on: cultured human cells; set-up: method as in Kadowaki et al., 2004; Kataoka et al., 2014; conditions: ref Kadowaki et al., 2004; Kataoka et al., 2014; cited from earlier work
E. coli = assay: Bactericidal activity, LIVE/DEAD BacLight viability assay; assay type: cell-based, Escherichia coli; conditions: 1 h
Protocol: Escherichia coli strain 43827 was purchased from the American Type Culture Collection and grown in TSB overnight with shaking in air at 37°C. Suspensions were serially diluted in saline and plated on TSB agar to determine CFU per milliliter.
Pg bacteria were collected by centrifugation and diluted to 2 × 10^8 CFU/mL in isotonic saline at 25°C. Pg (10^8 CFU/mL) were then incubated with various concentrations of protease inhibitors at 37°C with gentle mixing in 0.1 mL incubation mixtures in black multiwell plates inside AnaeroGen™ Compact pouches (Oxoid Corporation, Nepean, ON, Canada) to lower the oxygen (O2) concentration. After 1 h, the number of live bacteria per milliliter was measured with a LIVE/DEAD BacLight™ Bacterial Viability kit (Invitrogen, Inc., Carlsbad, CA). […] SYTO 9 enters both live and dead bacteria and binds to DNA, giving a green fluorescence. Propidium iodide enters only dead bacteria and binds to DNA, giving a red fluorescence. […] Immediately following removal of the plate from the pouch, fluorescence was measured in a fluorescence plate reader with excitation at 485 nm. Green fluorescence of SYTO 9 was measured at 538 nm, and red fluorescence of propidium iodide was measured at 612 nm. Standard curves were prepared with various ratios of live and dead bacteria, and the number of live bacteria was determined from the ratio of green to red fluorescence. […]

cathepsin B = tested on: cathepsin B; set-up: method as in McConnell et al., 1993; conditions: ref McConnell et al., 1993; cited from earlier work

## CC(C)C[C@H](NC(=O)[C@H]1O[C@@H]1C(=O)O)C(=O)NCCCCN=C(N)N (relative stereo) [E64, trans‐epoxysuccinyl‐L‐leucylamido‐(4‐guanidino)butane]
Rgp; Pg 33277 cell suspensions
  concentration causing 90% inhibition of Rgp activity: 1 mM
  IC50: 50000 nM
Kgp; any concentration tested, Pg 33277 cell suspensions
  effect on Kgp activity: no effect

## CN(C)C(=O)[C@H](CCCCN)NC(=O)C(=O)[C@H](CCCNC(=N)N)NC(=O)[C@H](CCCCN)NC(=O)OCc1ccccc1 [KYT‐1, carbobenzoxy‐Lys‐Arg‐CO‐Lys‐N(CH3)2]
Water solubility
  water solubility: water soluble
Pg
  bactericidal activity: not bactericidal
Rgp; Pg 33277 cell suspensions
  IC50: 2 nM
Rgp; Rgp versus Kgp, cell suspensions
  difference in concentrations causing 50% inhibition of Rgp and Kgp: 10,000 fold
Cultured human cells
  toxicity to cultured human cells: non‐toxic
Kgp
  IC50: 20000 nM

## CN(NC(=O)CC[C@H](NC(=O)OCc1ccccc1)C(=O)N[C@@H](CCCCN)C(=O)C(=O)NCc1ccccc1)c1ccccc1 [KYT‐36, carbobenzoxy‐Glu(NHN(CH3)Ph)‐Lys‐CO‐NHCH2Ph]
Water solubility
  water solubility: water soluble
Pg
  bactericidal activity: not bactericidal
Rgp
  effect on Rgp activity: did not inhibit Rgp
Cultured human cells
  toxicity to cultured human cells: non‐toxic
Kgp
  IC50: 1 nM

## NC(N)=NCCC[C@H](NC(=O)[C@@H]1CCCN1C(=O)[C@H](N)Cc1ccccc1)C(=O)CCl [PPACK, D‐Phe‐Pro‐Arg‐chloromethylketone]
Rgp; Pg 33277 cell suspensions
  IC50: 2 nM
Kgp; Pg 33277 cell suspensions, 0.2 mM Boc‐VLK‐AMC, 15 min, read-out: concentration causing 50% inhibition of Kgp activity
  IC50: 20 nM

## Cc1cc(C)c(C(=O)OCC(=O)[C@H](CCCCN)NC(=O)[C@H](Cc2ccccc2)NC(=O)OCc2ccccc2)c(C)c1 [Z‐FK‐ck, Z‐Phe‐Lys‐2,4,6‐trimethylbenzoyloxy‐methylketone]
Pg; Pg 10^8 CFU/mL, 37°C, low oxygen
  concentration causing 50% loss of viability: 30 µM
Pg
  bactericidal activity: significant bactericidal activity
Rgp; Pg 33277 cell suspensions
  IC50: 2000 nM
Kgp
  IC50: 0.5 nM
E. coli; 37°C, in air
  concentration causing 50% loss of viability: 30 µM
E. coli; concentrations up to 1 × 10^−4 M
  bactericidal activity: significant bactericidal activity

## CC(=O)N[C@@H](CC(C)C)C(=O)N[C@H](C(=O)N[C@H](C=O)CCCCN)C(C)C [cathepsin B inhibitor II, Ac‐Leu‐Val‐Lys‐aldehyde] (Ac-Leu-Val-Lys-aldehyde)
Cathepsin B
  effectiveness as inhibitor of cathepsin B relative to leupeptin: ~100 times
Rgp
  effect on Rgp activity: no effect
Kgp
  IC50: 50 nM

## CC(=O)N[C@@H](CC(C)C)C(=O)N[C@@H](CC(C)C)C(=O)N[C@H](C=O)CCCNC(=N)N [leupeptin, Ac‐Leu‐Leu‐Arg‐aldehyde]
Rgp; Pg 33277 cell suspensions
  IC50: 20 nM
Kgp; concentrations up to 1 × 10^−4 M, results not shown
  effect on Kgp activity: no effect
